Measured values: US8383663B2, “Bendamustine anionic-catioinic cyclopolysaccharide compositions” (priority 2010, dated 2013)
Structures can show the parent of a compound that is named as a salt.

Test system: human breast carcinoma MDA-MB-231 cells
Assay: Growth of subcutaneous solid tumors of human breast carcinoma MDA-MB-231 cells in mice
Assay type: in vivo, Balb/c mice
Settings: 35 mg/kg i.v. on day 1, 2, 13 and 14, Average (SEM)
Experimental: Effect of bendamustine in a composition comprising sodium sulfobutyl ether β-cyclodextrin and heptakis(6-amino-6-deoxy-β-cyclodextrin) on growth of subcutaneous solid tumors of human breast carcinoma MDA-MB-231 cells in Balb/c mice.
Balb/c mice aging 5 to 6 weeks were purchased from Charles River Canada Inc. The animals were kept 5 per cage with an air filter cover under light (12 light/dark cycle, light on at 6H00) and temperature (22°±1° C.)-controlled environment. All manipulations of animals were performed under a sterilized laminar. The animals had ad libitum access to Purina mouse chow (Pro Lab PMH 4018, Trademark of Agway, Syracuse, N.Y.) and water. These animal studies were conducted according to the “Guidelines for Care and Use of Experimental Animals”.
Human breast cancer cells MDA-MB 231 were cultured in the appropriated culture medium. The cells were harvested in their logarithmic growth phase for the preparation of tumor implantation.
MDA-MB-231 cells (5.0×10^5 cells per an injection) in culture medium with 30% Matrigel were subcutaneously inoculated at 2 sides of the flank of each animal. Nine to ten days after implantation, when tumor size reaches to 0.5 to 0.8 cm in the diameter, the animals were be randomly divided into groups, 5 animals per group. The treatments by intravenously injection were performed on day 1, 2, 13 and 14. The control group was treated with isotonic saline. The reference group was treated with 35 mg/kg dose of bendamustine HCl in water (7 mg/mL). The test group was treated with 60 mg/kg dose (equitoxic to the reference group treatment) of the composition of the present invention, comprising 13 mg/g bendamustine HCl, 20% SBECD and 1% H6A, and mannitol, prepared according to the procedure set forth in Example 1.
Subcutaneous solid tumor measurements were performed on the day of first injection and at 3- to 4-day intervals thereafter. Two largest perpendicular diameters of each tumor were measured with calipers and tumor size was estimated using formula […] where TV: tumor volume; L: length; W: width.
The body weights of animals were also noted.

Cn1c(CCCC(=O)O)nc2cc(N(CCCl)CCCl)ccc21 [Reference BM, bendamustine HCl]
Tumor weight after treatment (day 0): 0.111 (0.013) g
Tumor weight after treatment (day 2): 0.123 (0.016) g
Tumor weight after treatment (day 5): 0.134 (0.015) g
Tumor weight after treatment (day 7): 0.146 (0.017) g
Tumor weight after treatment (day 9): 0.156 (0.017) g
Tumor weight after treatment (day 12): 0.174 (0.018) g
Tumor weight after treatment (day 14): 0.205 (0.021) g
Tumor weight after treatment (day 16): 0.228 (0.024) g
Tumor weight after treatment (day 19): 0.248 (0.035) g
Tumor weight after treatment (day 21): 0.272 (0.042) g
Tumor weight after treatment (day 23): 0.296 (0.047) g
